Results taken from article PMC12883167 (Bioorganic & medicinal chemistry letters, 2019).
Square brackets hold non-standard residues; d marks the D form. Peptide text beside a SMILES is read from it. * marks the point of attachment. cisHyp = O=C(O)[C@@H]1C[C@H](O)CN1; Hyp = O=C(O)[C@@H]1C[C@@H](O)CN1; Chg = N[C@H](C(=O)O)C1CCCCC1; Tle = CC(C)(C)[C@H](N)C(=O)O; NMeV = CN[C@H](C(=O)O)C(C)C; αMeP = C[C@@]1(C(=O)O)CCCN1; Pip = O=C(O)[C@@H]1CCCCN1; Cbz = O=C(OCc1ccccc1)*; Bz = O=C(c1ccccc1)*; CH2F = FC*

Target: T1, MALT1 protease (Homo sapiens, UniProt Q9UDY8)
T1 sequence (Q9UDY8 1-824): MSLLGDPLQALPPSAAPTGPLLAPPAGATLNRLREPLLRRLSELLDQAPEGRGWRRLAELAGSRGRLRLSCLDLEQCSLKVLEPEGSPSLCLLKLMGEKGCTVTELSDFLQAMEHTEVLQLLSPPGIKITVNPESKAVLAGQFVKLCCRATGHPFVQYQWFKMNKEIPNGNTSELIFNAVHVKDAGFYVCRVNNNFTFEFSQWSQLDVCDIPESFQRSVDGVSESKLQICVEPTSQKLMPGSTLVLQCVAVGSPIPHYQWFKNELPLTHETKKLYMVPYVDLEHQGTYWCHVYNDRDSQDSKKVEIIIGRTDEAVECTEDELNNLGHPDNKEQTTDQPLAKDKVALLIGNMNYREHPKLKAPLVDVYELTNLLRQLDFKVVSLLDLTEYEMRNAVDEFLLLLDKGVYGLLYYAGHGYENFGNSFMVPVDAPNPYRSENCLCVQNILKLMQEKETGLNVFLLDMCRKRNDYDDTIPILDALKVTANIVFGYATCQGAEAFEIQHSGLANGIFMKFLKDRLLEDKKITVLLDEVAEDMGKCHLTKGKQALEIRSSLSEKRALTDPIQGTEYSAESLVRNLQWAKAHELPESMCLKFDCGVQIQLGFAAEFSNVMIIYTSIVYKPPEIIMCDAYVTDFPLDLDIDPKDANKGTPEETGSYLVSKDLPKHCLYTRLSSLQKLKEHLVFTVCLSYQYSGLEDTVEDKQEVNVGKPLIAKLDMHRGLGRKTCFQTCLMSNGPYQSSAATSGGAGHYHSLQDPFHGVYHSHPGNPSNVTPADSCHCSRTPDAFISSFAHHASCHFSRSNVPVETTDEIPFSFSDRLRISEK
Assay type: cell-based
Conditions: Cell (Glo), GloSensor reporter, PMA/IO activated Raji cells

SMILES	IC50 [nM]
CC(C)[C@H](NC(=O)c1cccc(Br)c1)C(=O)N1CCC[C@H]1C(=O)N[C@@H](CCCNC(=N)N)C(=O)CF [Compound 21]	180
CC(C)[C@H](NC(=O)c1ccccc1)C(=O)N1CCC[C@H]1C(=O)N[C@@H](CCCNC(=N)N)C(=O)CF [Compound 19] (Bz-Val-Pro-Arg-CH2F)	640
CC(C)C[C@H](NC(=O)OCc1ccccc1)C(=O)N1CCC[C@H]1C(=O)N[C@@H](CCCNC(=N)N)C(=O)CF [Compound 31] (Cbz-Leu-Pro-Arg-CH2F)	3420
CC(C)[C@H](NC(=O)C1CCCCC1)C(=O)N1CCC[C@H]1C(=O)N[C@@H](CCCNC(=N)N)C(=O)CF [Compound 28]	640
COc1ccc(C(=O)N[C@H](C(=O)N2CCC[C@H]2C(=O)N[C@@H](CCCNC(=N)N)C(=O)CF)C(C)C)cc1 [Compound 26]	800
CC(C)[C@H](NC(=O)OCc1ccccc1)C(=O)N1CCC[C@H]1C(=O)N[C@@H](CCCNC(=N)N)C(=O)CF [Compound 4, Z-VPR-fmk] (Cbz-Val-Pro-Arg-CH2F)	1960
CC(C)[C@@H](C(=O)N1CCC[C@H]1C(=O)N[C@@H](CCCNC(=N)N)C(=O)CF)N(C)C(=O)OCc1ccccc1 [Compound 5] (Cbz-[NMeV]-Pro-Arg-CH2F)	3000
CC(C)c1ccc(C(=O)N[C@H](C(=O)N2CCC[C@H]2C(=O)N[C@@H](CCCNC(=N)N)C(=O)CF)C(C)C)cc1 [Compound 27]	70

Other lines, results leading:

IC50 [nM]	SMILES
873	CC(C)[C@H](NC(=O)OCc1ccccc1)C(=O)N1CCC[C@@]1(C)C(=O)N[C@@H](CCCNC(=N)N)C(=O)CF [Compound 43] (Cbz-Val-[αMeP]-Arg-CH2F)
150	N=C(N)NCCC[C@H](NC(=O)[C@@H]1CCCN1C(=O)[C@@H](NC(=O)OCc1ccccc1)C1CCCCC1)C(=O)CF [Compound 34] (Cbz-[Chg]-Pro-Arg-CH2F)
239	CC(C)[C@H](NC(=O)OCc1ccccc1)C(=O)N1C[C@@H](O)C[C@H]1C(=O)N[C@@H](CCCNC(=N)N)C(=O)CF [Compound 42] (Cbz-Val-[cisHyp]-Arg-CH2F)
77	CC(C)[C@H](NC(=O)c1ccc(Br)cc1)C(=O)N1COC[C@H]1C(=O)N[C@@H](CCCNC(=N)N)C(=O)CF [Compound 48]
710	CC(C)(C)[C@H](NC(=O)OCc1ccccc1)C(=O)N1CCC[C@H]1C(=O)N[C@@H](CCCNC(=N)N)C(=O)CF [Compound 35] (Cbz-[Tle]-Pro-Arg-CH2F)
1860	CC[C@H](C)[C@H](NC(=O)OCc1ccccc1)C(=O)N1CCC[C@H]1C(=O)N[C@@H](CCCNC(=N)N)C(=O)CF [Compound 32] (Cbz-Ile-Pro-Arg-CH2F)
2030	N=C(N)NCCC[C@H](NC(=O)[C@@H]1CCCN1C(=O)[C@H](Cc1ccccc1)NC(=O)OCc1ccccc1)C(=O)CF [Compound 33]
144	CC(C)[C@H](NC(=O)OCc1ccccc1)C(=O)N1CCCC[C@H]1C(=O)N[C@@H](CCCNC(=N)N)C(=O)CF [Compound 40] (Cbz-Val-[Pip]-Arg-CH2F)
87	N=C(N)NCCC[C@H](NC(=O)[C@H](CO)NC(=O)[C@@H](NC(=O)c1ccc(Br)cc1)C1CCCCC1)C(=O)CF [Compound 52]
65	N=C(N)NCCC[C@H](NC(=O)[C@@H]1C[C@@H](O)CN1C(=O)[C@@H](NC(=O)c1ccc(Br)cc1)C1CCCCC1)C(=O)CF [Compound 53]
209	CC(C)[C@H](NC(=O)OCc1ccccc1)C(=O)N1C[C@H](O)C[C@H]1C(=O)N[C@@H](CCCNC(=N)N)C(=O)CF [Compound 41] (Cbz-Val-[Hyp]-Arg-CH2F)
149	CC(C)[C@H](NC(=O)OCc1ccccc1)C(=O)N[C@@H](CO)C(=O)N[C@@H](CCCNC(=N)N)C(=O)CF [Compound 39]
